Results as given in the NIST ThermoML archive (doi:10.1021/acs.jced.6b00957).
Numbers after ± are expanded uncertainties.

Columns and labels:
[1] = Crystal; DTA
[2] = Molar enthalpy of transition or fusion; conditions: Crystal; DSC

Normal melting temperature [1]: 167.1 ± 4 °C
Molar enthalpy of transition or fusion [2]: 6.05 ± 0.382 kcal/mol
SMILES: O=C(O)c1c(O)cccc1O [2,6-dihydroxybenzoic acid]
